Data published in patent US5523303A, “Trisubstituted cycloalkane derivatives and process for the preparation thereof” (Egis Gyogyszergyar Rt., priority 1993, dated 1996).
Like-named read-outs stand apart in the source and are kept apart here.

What was measured:
H^+ K^+ -ATP-ase = biological target: T1, H^+ K^+ -ATP-ase (Sus scrofa, UniProt P19156); test: H+/K+-ATP-ase inhibition on partially purified pig's microsome specimen (method of Rabon and Sachs); format: biochemical
T1 construct: on partially purified pig's microsome specimen; from tissue; host or cells: pig stomach, partially purified microsomes
T1 sequence (P19156 2-1034 limits assumed): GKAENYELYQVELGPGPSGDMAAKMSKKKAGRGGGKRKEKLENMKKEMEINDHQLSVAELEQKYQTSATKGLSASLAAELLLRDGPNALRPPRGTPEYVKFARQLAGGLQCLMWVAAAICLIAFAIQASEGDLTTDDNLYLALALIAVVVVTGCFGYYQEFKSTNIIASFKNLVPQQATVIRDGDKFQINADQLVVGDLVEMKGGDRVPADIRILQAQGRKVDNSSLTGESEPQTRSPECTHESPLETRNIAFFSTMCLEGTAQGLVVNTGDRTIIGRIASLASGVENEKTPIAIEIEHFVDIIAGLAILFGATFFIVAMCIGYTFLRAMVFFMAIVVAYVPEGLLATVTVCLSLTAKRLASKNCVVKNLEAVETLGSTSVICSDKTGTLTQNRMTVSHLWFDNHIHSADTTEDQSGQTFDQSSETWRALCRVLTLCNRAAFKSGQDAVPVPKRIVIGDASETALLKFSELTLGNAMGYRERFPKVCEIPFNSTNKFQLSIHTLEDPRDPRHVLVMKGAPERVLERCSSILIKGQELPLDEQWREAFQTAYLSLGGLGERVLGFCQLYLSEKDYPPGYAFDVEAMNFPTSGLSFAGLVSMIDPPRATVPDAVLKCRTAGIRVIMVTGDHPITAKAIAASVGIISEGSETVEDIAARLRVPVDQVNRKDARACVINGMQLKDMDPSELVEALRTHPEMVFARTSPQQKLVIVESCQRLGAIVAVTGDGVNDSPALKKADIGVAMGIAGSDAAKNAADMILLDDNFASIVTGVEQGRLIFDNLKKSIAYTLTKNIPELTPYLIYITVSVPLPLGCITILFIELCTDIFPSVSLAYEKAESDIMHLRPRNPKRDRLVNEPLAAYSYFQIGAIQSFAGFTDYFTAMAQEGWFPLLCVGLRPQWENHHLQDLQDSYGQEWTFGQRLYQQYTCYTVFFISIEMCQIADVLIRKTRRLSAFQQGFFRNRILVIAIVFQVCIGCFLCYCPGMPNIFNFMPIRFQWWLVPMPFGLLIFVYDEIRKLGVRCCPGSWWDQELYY
T1 sequence (P18434 whole entry partner): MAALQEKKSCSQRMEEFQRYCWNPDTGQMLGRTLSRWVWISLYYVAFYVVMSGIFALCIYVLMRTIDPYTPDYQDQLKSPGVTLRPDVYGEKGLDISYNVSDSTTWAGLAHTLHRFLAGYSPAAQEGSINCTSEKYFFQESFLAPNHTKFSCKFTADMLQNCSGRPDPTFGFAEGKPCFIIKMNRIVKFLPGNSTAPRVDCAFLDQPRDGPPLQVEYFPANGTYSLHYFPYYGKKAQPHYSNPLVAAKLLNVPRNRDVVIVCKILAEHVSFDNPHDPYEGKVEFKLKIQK
Protocol: 1. H^+ /K^+ -ATP-ase inhibition on pig'stomach. The test was carried out according to the method of Rabon and Sachs [E. C. Rabon, W. B. I. and G. Sachs: Preparation of gastric H^+ /K^+ -ATP-ase. Methods in Enzymology, 157, 649-651 (1988)]. The activity of the prepared enzyme was measured both in the presence and in the absence of K^+ ions. The difference in the liberation of phosphorus representing the activity of the enzyme was measured.

[1] = Acute toxicity on mice (method of Lichtfield and Wilcoxon), LD50; details: mouse, in vivo, ip, 14 days observation
gastric-acid-secretion = test: Gastric-acid-secretion inhibition on rats (method of Shay et al.); format: in vivo; details: Rattus norvegicus, po, read-out: Acid-secretion inhibition, ED50
Protocol: 2. […] The liberated gastric acid content was determined by titration 4 hours after the ligature of the duodenum.

[2] = Acute toxicity on mice (method of Lichtfield and Wilcoxon), LD50; details: mouse, in vivo, po, 14 days observation
Protocol: The test was carried out according to the method of Lichtfield and Wilcoxon [Lichtfield, J. T. and Wilcoxon, F. W.: J. Pharmacol. Exp. Ther., 96, 99 (1949)] by using white mice belonging to the CFLP strain and weighing 10 to 22 g, 10 animals per dose. The test compounds were administered orally in a volume of 20 cm3 /kg.

[3] = tested on: erosion of the stomach wall; test: Cytoprotective effect: inhibition of ethanol-induced erosion of the stomach wall on rats (method of Robert); format: in vivo; details: for ED50: Rattus norvegicus, po; for Ratio of acid-secretion inhibition and erosion inhibition: ratio of the ED50 values
Protocol: 3. The cytoprotective effect was determined on rats according to the method of Robert [Robert, A.: Cytoprotection by prostaglandins. […] Rats weighing 200 to 250 g were used as test animals. 1 cm^3 of abs. ethanol was introduced to the stomach to produce an erosion of the stomach wall. The length and frequency of the lesions (erosion index and frequency) were measured and the percentage inhibition of lesion formation compared with vehicle-treated animals was calculated.

beta-adrenergic = details: prior art; cited from earlier work
lipid level = details: prior art; cited from earlier work
[4] = prior art; cited from earlier work
[5] = rats, p.o., 4 hours after ligature

## CC(CO/N=C1/C(=C/c2ccc(F)cc2)CCCC1C)CN(C)C (racemic) [Example 9, (R,S)-6-(E)-(4-Fluorophenylmethylene)-2-methyl-1-(E)-[3-(dimethylamino)-2-methylpropoxyimino]-cyclohexane]
H^+ K^+ -ATP-ase
  IC50: > 30 µM
[1]
  LD50 at 336 h: ~300 mg/kg
gastric-acid-secretion; [5]
  ED50: 30 to 120 mg/kg
[2]
  LD50 at 336 h: 600 mg/kg
[3]; abs. ethanol
  ED50: 1.2 mg/kg
[3]; p.o.
  Ratio of acid-secretion inhibition and erosion inhibition: 25-100

## CCCCCC1CCCC(=C\c2ccc(F)cc2)/C1=N/OCCN1CCN(Cc2ccccc2)CC1 (racemic) [Example 31, (R,S)-6-(E)-(4-Fluorophenylmethylene)-2-pentyl-1-(E)-[2-(4-phenylmethyl-1-piperazinyl)-ethoxyimino]-cyclohexane]
H^+ K^+ -ATP-ase
  IC50: > 30 µM
[1]
  LD50 at 336 h: > 300 mg/kg
gastric-acid-secretion; [5]
  ED50: 200 mg/kg
[2]
  LD50 at 336 h: > 1000 mg/kg
[3]; abs. ethanol
  ED50: 3.9 mg/kg
[3]; p.o.
  Ratio of acid-secretion inhibition and erosion inhibition: 50

## CCCCCCC1CCCC(=C\c2ccccc2OC)/C1=N/OCCN(CC)CC (racemic) [Example 34, (R,S)-6-(E)-(2-Methoxyphenylmethylene)-2-hexyl-1-(E)-[2-(diethylamino)-ethoxyimino]-cyclohexane]
H^+ K^+ -ATP-ase
  IC50: 5 µM
[1]
  LD50 at 336 h: 88 mg/kg
gastric-acid-secretion; [5]
  ED50: 103 mg/kg
[2]
  LD50 at 336 h: ~1000 mg/kg
[3]; abs. ethanol
  ED50: 1.4 mg/kg
[3]; p.o.
  Ratio of acid-secretion inhibition and erosion inhibition: 73.4

## CCCCCCCC1CCCC(=C\c2ccc(F)cc2)/C1=N/OCCN(C)C (racemic) [Example 35, (R,S)-6-(E)-(4-Fluorophenylmethylene)-2-heptyl-1-(E)-[2-(dimethylamino)-ethoxyimino]-cyclohexane]
[1]
  LD50 at 336 h: 100 to 300 mg/kg
gastric-acid-secretion; [5]
  ED50: < 200 mg/kg
[2]
  LD50 at 336 h: > 1000 mg/kg
[3]; abs. ethanol
  ED50: 2.9 mg/kg
[3]; p.o.
  Ratio of acid-secretion inhibition and erosion inhibition: ≤ 70

## CCCC1CCCCC(=C\c2ccc(Cl)cc2)/C1=N/OCCN(CC)CC (racemic) [Example 40, (R,S)-7-(E)-(4-Chlorophenylmethylene)-2-propyl-1-(E)-[2-(diethylamino)-ethoxyimino]-cycloheptane]
H^+ K^+ -ATP-ase
  IC50: 7 µM
[1]
  LD50 at 336 h: 100 to 300 mg/kg
gastric-acid-secretion; [5]
  ED50: 52.9 mg/kg
[2]
  LD50 at 336 h: > 1000 mg/kg
[3]; abs. ethanol
  ED50: 2.6 mg/kg
[3]; p.o.
  Ratio of acid-secretion inhibition and erosion inhibition: 20

## CCN(CC)CCO/N=C1/C(=C/c2ccc(Cl)c(Cl)c2)CCCC1C (racemic) [Example 41, (R,S)-6-(E)-(3,4-Dichlorophenylmethylene)-2-methyl-1-(E)-[2-(diethylamino)-ethoxyimino]-cyclohexane]
H^+ K^+ -ATP-ase
  IC50: 17 µM
[1]
  LD50 at 336 h: 100 to 300 mg/kg
[2]
  LD50 at 336 h: > 1000 mg/kg

## CCCC1CCCCC(=C\c2ccc(Cl)cc2)/C1=N/OCC(O)CN1CCCC1 (racemic) [Example 44, (R,S)-2-Propyl-7-(E)-(4-chlorophenylmethylene)-1-(E)-[2-hydroxy-3-(N-pyrrolidinylpropoxyimino)]-cycloheptane]
H^+ K^+ -ATP-ase
  IC50: 10 µM
[1]
  LD50 at 336 h: 100 to 300 mg/kg
gastric-acid-secretion; [5]
  ED50: 50 to 200 mg/kg
[2]
  LD50 at 336 h: > 1000 mg/kg
[3]; abs. ethanol
  ED50: 1.6 mg/kg

## CN/C(=N/CCSCc1nc[nH]c1C)NC#N [Cimetidine, reference compound]
gastric-acid-secretion; 4 h
  ED50: 59.1 mg/kg
[3]; abs. ethanol
  ED50: 100 to 200 mg/kg
[3]; p.o.
  Ratio of acid-secretion inhibition and erosion inhibition: 0.3-0.6

## CC(=NOCC(O)CNC(C)(C)C)C1CC1 (stereo not drawn) [Falintolol]
beta-adrenergic
  beta-adrenergic blocking activity: exhibit beta-adrenergic blocking activity

## CC(C)(C)NCC(O)CON=C1c2ccccc2-c2ccccc21 (stereo not drawn) [IPS-339]
beta-adrenergic
  beta-adrenergic blocking activity: exhibit beta-adrenergic blocking activity

## COc1ccc2[nH]c([S+]([O-])Cc3ncc(C)c(OC)c3C)nc2c1 (stereo not drawn) [Omeprazole, reference compound]
gastric-acid-secretion; [5]
  ED50: 3.9 mg/kg
[3]; abs. ethanol
  ED50: 4.5 mg/kg
[3]; p.o.
  Ratio of acid-secretion inhibition and erosion inhibition: 0.9

## OC(CON=Cc1ccc(Cl)cc1)CN1CCN(c2ccccc2Cl)CC1 (stereo not drawn) [Peraclopon]
Lipid level
  lipid level lowering: lipid level lowering agent

## COc1cccc(C=NOCC(O)CN2CCN(c3ccccc3OC)CC2)c1 (stereo not drawn) [Peradoxime]
[4]
  hypotensive effect: has a hypotensive effect

## CN1CCN(CC(=O)N2c3ccccc3C(=O)Nc3cccnc32)CC1 [Pirenzepine, reference compound]
gastric-acid-secretion; [5]
  ED50: 7.9 mg/kg
[3]; abs. ethanol
  ED50: 18.6 mg/kg
[3]; p.o.
  Ratio of acid-secretion inhibition and erosion inhibition: 0.4

## Sucralfate [reference compound]
[3]; p.o., abs. ethanol
  Ethanol erosion ED50: 69 mg/kg
